Data set [1] relates to intracellular amastigotes of L. infantum. The experiment in a line: Infection index of DH82 macrophages infected with L. infantum (intracellular amastigotes). In kind it is cell-based, Leishmania infantum. The following applies: for nº Amastigotes/Infected Cell / % Infected Cells / Infection Index: DH82 macrophages, 48 h. The protocol:
Anti-Leishmania (AL) activity was assessed on L. infantum promastigotes (MCAN/ES/98/LLM-722), kindly provided by Dr. J.M. Requena from CBM-CSIC, as well as on L. infantum (M/CAN/ES/96/BCN150 zymodeme MON-1), strain isolated from a dog with active visceral leishmaniasis. L. infantum promastigotes (MCAN/ES/98/LLM-722) were cultured in RPMI medium supplemented with 15% FBS and 10 μg/mL of hemin (Acros Organics, Madrid, Spain), grown at 26 °C. Promastigotes in logarithmic growth were seeded in 96-well flat-bottom plates at a volume of 100 μL of culture per well and incubated for 48 h. Promastigotes for macrophage infection (M/CAN/ES/96/BCN150 zymodeme MON-1) were maintained at 26 °C in Schneider’s insect medium (Lonza, Basel, Switzerland) supplemented with 10% FBS and 100 U/mL penicillin and 100 μg/mL streptomycin (Lonza, Basel, Switzerland) (Pen-Strep). Promastigotes in the stationary phase of growth (5–6 days) were washed twice in phosphate-buffered saline at 2700× g for 10 min at 22 °C and employed for macrophage infection.
(§1) Canine DH82 (ATCC®-CRL-10389TM) macrophages were maintained in Dulbecco’s modified Eagle’s medium (DMEM) (Thermo Fisher Scientific, Waltham, MA, USA) supplemented with 10% heat-inactivated FBS (Thermo Fisher Scientific, Waltham, MA, USA), and Pen-Strep at 37 °C in 5% CO2.
DH82 cells (5 × 10^4 per well) were seeded in LabTek culture chamber slides (Thermo Scientific, Nunc™, Roskilde, Denmark) and incubated overnight at 37 °C and 5% CO2. On the following day, macrophages were infected with L. infantum stationary phase-promastigotes at a ratio of 5:1 parasites/macrophage and after 4 h of incubation at 37 °C, a time point that reflects initial infection, extracellular promastigotes were removed by washing. Germacrone was added at varying concentrations (10, 50 and 100 μg/mL) and macrophages were incubated in fresh medium for 48 h at 37 °C and 5% CO2. After Giemsa staining, cells were mounted with Vitro-Clud (Deltalab SLU, Barcelona, Spain), and 400 macrophages were counted in duplicate in a microscope Olympus BX41 (Olympus Corporation, Tokyo, Japan). The percentage of infected macrophages and the mean of the number of amastigotes per infected macrophage (defined as the intensity of infection) were evaluated. The infection index was calculated by multiplication of both parameters to account for the overall parasite load.

Data set [2] is described as follows: Cytotoxicity of germacrone on DH82 macrophages (MTT). In kind it is cell-based, canine. The following applies: dog, DH82 macrophages; 48 h treatment; MTT; R^2 98.4. The procedure:
as §1
(§2) DH82 canine macrophages (5 × 10^4 per well) were seeded in 96-well plates in DMEM and kept overnight at 37 °C and 5% CO2. After washing with PBS, germacrone was added in varying concentrations (10, 50 and 100 μg/mL). After 48 h of treatment, cell viability was determined by the MTT method using a spectrophotometer (Multiskan EX, Thermo Electron Corporation, Vantaa, Finland) at 570 nm. The results were expressed as the cytotoxic concentration of 50% of the cell population (CC50). Amphotericin B (Gibco, Thermo Fisher Scientific, Grand Island, NY, USA) at 1 μg/mL was used as the reference drug. The assays were performed in two independent experiments, each in quadruplicate.

A further data set has as its system DH82 canine macrophages. The description is as above. The following applies: at concentrations of 50 and 100 μg/mL. The data set is classed as cell-based. The procedure:
as §1, §2

The subject of data set [3] is G. duodenalis trophozoites. Description: Morphological evaluation by light microscopy (Diff-Quik), G. duodenalis. In kind it is cell-based, Giardia duodenalis. The following applies: germacrone 100 µg/mL. The procedure:
Each well contained 435 μL of culture medium and 15 μL of the test or control compounds at the above-mentioned concentrations. The chamber included: two wells for growth control (0.5 h, 48 h), two for germacrone (0.5 h, 48 h), and two for metronidazole (0.5 h, 48 h). Incubation was performed at 37 °C. At each time point, the medium was removed, wells were dried, fixed, and stained with Diff-Quik. Morphological changes were analyzed using light microscopy. Experiments were performed as independent biological replicates on different plates, and one Diff-Quik stained smear was obtained per condition and time point per biological replicate. For morphometric analysis, a total of 30 trophozoites per condition and time point were measured across the independent biological replicates and were selected by consecutive sampling during a predefined serpentine (zig-zag) scan across the preparation. Up to two eligible trophozoites per field (intact, well-focused and non-overlapping) were measured in sequential fields until n = 30 was reached, avoiding subjective selection of “representative” cells. Overlapping, partially visible, out-of-focus, edge-of-field, or debris-obscured trophozoites were excluded a priori. Trophozoites were photographed using a researcher's mobile phone mounted to the microscope ocular. Calibration was performed at the same magnification using a stage micrometre and applied in ImageJ v. 1.54d. One Diff-Quik stained smear was obtained per condition/time point per biological replicate Cell length, cell width, cell surface, nuclear length, nuclear width, axoneme (only Giardia), and length of axostyle (only T. gallinae) were measured with ImageJ software, and the data were recorded in an Excel database for statistical analysis. The Shapiro-Wilk test was used to assess the normality of the morphological variables. When data followed a normal distribution, Student's t-test was applied; otherwise, non-parametric tests, such as the Mann-Whitney U test, was used. Values of p < 0.05 were considered significant. For the morphological analysis, the mean, standard deviation, median, and interquartile range were calculated using SPSS version 20 (IBM Corp., Armonk, NY, USA).

Setting [4] is: metronidazole 100 µg/mL, 0.5 and 48 h, control DMSO 1%.

In brackets after ≈: the same amount, converted by molar mass. Entries after “also recorded” stand apart in the source; their conditions may differ.

Turning to `CC(C)=C1C/C=C(\C)CC/C=C(\C)CC1=O` [Compound 2, germacrone], in data set [1] (10 µg/mL), the “nº Amastigotes/Infected Cell” value turned out to be 2.4 ± 1.1. The “% Infected Cells” value in data set [1] (10 µg/mL, control of infection 42.8, listed as Germacrone (2)) stood at 25.9 ± 8.3 %. Moreover, in data set [1] (10 µg/mL, control of infection 42.8, listed as germacrone (2)), the “% Infected Cells” value worked out at 25.9%. Further, in data set [1] (10 µg/mL, control of infection 152.1, listed as Germacrone (2)), the “Infection Index” value was determined as 61.0 ± 9.4. Further, the “Infection Index” value in data set [1] (10 µg/mL, control of infection 152.1, listed as germacrone (2)) is recorded as 61.0. For the same molecule, the “reduction of the infection index” value in data set [1] (10 µg/mL, from 152.1 (control) to 61.0) is “more than 50%”. In data set [1] (50 µg/mL), the “% Infected Cells” value is “dead cells”, the “Infection Index” value is “dead cells” and the “nº Amastigotes/Infected Cell” value is recorded as “dead cells”. For the same molecule, in data set [1] (100 µg/mL), the “% Infected Cells” value is reported as “dead cells”, the “Infection Index” value is reported as “dead cells” and the “nº Amastigotes/Infected Cell” value was “dead cells”. This molecule displayed a CC50 at 48 h in data set [2] of 12.9 µg/mL (≈ 59.1 µM). Also, the “effect on canine macrophages” value with DH82 canine macrophages was “lethal”. Moreover, in data set [3] (setting [4]), the “axoneme length vs control” value is reported as “decreased at 0.5 h; also recorded: at 48 h, germacrone caused an increase”; the “cell length vs control” value was “significant reductions at 30 min”; the “cell width vs control” value is “no differences were observed at 0.5 h with germacrone, but after 48 h, a significant increase”; the “nuclear length (left and right) vs control” value is “decreased significantly with germacrone at 0.5 h and later increased after 48 h”. Further, the “nuclear width vs control” value in data set [3] (setting [4]) is on record as “reduction at 0.5 h, followed by an increase at 48 h”. Moreover, the “morphological changes (light microscopy)” value in data set [3] (48 h of exposure, Diff-Quik) is “less defined cytoplasm and nucleus of the cells”.

What is called CC50 is the concentration at which the toxic effect on the cells reaches its halfway point.

The record behind these values is article PMC12841663, “Antiprotozoal Potential of Cultivated Geranium macrorrhizum Against Giardia duodenalis, Trichomonas gallinae and Leishmania infantum” (International Journal of Molecular Sciences, 2026).
